Tested on: Aβ42
Assay: In vitro cell screening assay in H4 cells expressing human APP751: Aβ42 by sandwich ELISA
Format: cell-based
Settings: compounds 0.003-10 μM, incubated overnight (16-18 h), sandwich ELISA of supernatant
Method: Human neuroglioma H4 cells were transfected with a pcDNA3.1 plasmid expressing human wild type APP751 cDNA and a stable cell line was generated using G418 selection. Cells were plated at 15,000 cells/well in Costar 96-well plates and placed at 37° C. and 5% CO2. Six hours after plating, cells were washed three times with Pro293™ chemically defined medium, followed by addition of compounds (0.003-10 μM, final DMSO concentration of 0.33%). Plates were incubated overnight (16-18 h) and supernatant was removed for quantification of Aβ peptides by sandwich ELISA. Cytotoxicity was evaluated using Cell-Titer 96W AQueous One Solution Cell Proliferation Assay according to the manufacturer's protocol.
Aβ peptide levels were quantified by sandwich ELISA. 96-well plates were coated with C-terminal specific Aβ antibodies recognizing either Aβ37, Aβ38, Aβ40, Aβ42, Aβ43 or a N-terminal specific Aβ antibody to detect Aβ 1-x. Plates were then blocked overnight at 4° C. with 1% bovine serum albumin (BSA) in PBS-T. Plates were washed and 100 μl of cultured cell supernatant or synthetic Aβ peptide standards and a detection antibody (4G8-HRP) were applied to the blocked plate and incubated overnight at 4° C. The next day, wells were washed before the addition of detection substrate (TMB peroxidase). Plates were then read for absorbance at 450 nm on a Molecular Devices SpectraMax M5e Microplate Reader.
Compound-treated samples were normalized to samples treated with DMSO alone (no inhibition) and to samples treated with DAPT. EC50 values were calculated from values reported as percent of DMSO controls using nonlinear regression, based on a sigmoidal dose response (variable slope) model. GraphPAD software from Prism used for calculation.

SMILES | EC50 | EC50 (Homo sapiens)
COc1nc(C2=NOCC(c3cc4c(F)cccc4o3)N2)ccc1-n1cnc(C)c1 (single isomer, unassigned; (+)) [Example 99A, (+)-5-(4-fluorobenzofuran-2-yl)-3-(6-methoxy-5-(4-methyl-1H-imidazol-1-yl)pyridin-2-yl)-5,6-dihydro-4H-1,2,4-oxadiazine] | 856 nM | 
COc1nc(C2=NOCC(c3ccc(OC(F)(F)F)cc3)N2)ccc1-n1cnc(C)c1 (single isomer, unassigned; (-)) [Example 70A, (−)-3-(6-methoxy-5-(4-methyl-1H-imidazol-1-yl)pyridin-2-yl)-5-(4-(trifluoromethoxy)phenyl)-5,6-dihydro-4H-1,2,4-oxadiazine] | > 3000 nM | 
COc1nc(C2=NOCC(c3ccc4sc(C)nc4c3)N2)ccc1-n1cnc(C)c1 (single isomer, unassigned; (+)) [Example 215B, (+)-3-(6-methoxy-5-(4-methyl-1H-imidazol-1-yl)pyridin-2-yl)-5-(2-methylbenzo[d]thiazol-5-yl)-5,6-dihydro-4H-1,2,4-oxadiazine] | 52.7 nM | 
COc1nc(C2=NOCC(c3cn(C)c4cc(F)c(Cl)cc34)N2)ccc1-n1cnc(C)c1 (single isomer, unassigned; (+)) [Example 216B, (+)-5-(5-chloro-6-fluoro-1-methyl-1H-indol-3-yl)-3-(6-methoxy-5-(4-methyl-1H-imidazol-1-yl)pyridin-2-yl)-5,6-dihydro-4H-1,2,4-oxadiazine] | 4.2 nM | 
COc1nc(C2=NOCC(c3oc4ccc(F)cc4c3C)N2)ccc1-n1cnc(C)c1 (single isomer, unassigned; (-)) [Example 101A, (−)-5-(5-fluoro-3-methylbenzofuran-2-yl)-3-(6-methoxy-5-(4-methyl-1H-imidazol-1-yl)pyridin-2-yl)-5,6-dihydro-4H-1,2,4-oxadiazine] | 1570 nM | 
COc1nc(C2=NOCC(c3cn(C)c4ccc(F)c(F)c34)N2)ccc1-n1cnc(C)c1 (single isomer, unassigned; (-)) [Example 220A, (−)-5-(4,5-difluoro-1-methyl-1H-indol-3-yl)-3-(6-methoxy-5-(4-methyl-1H-imidazol-1-yl)pyridin-2-yl)-5,6-dihydro-4H-1,2,4-oxadiazine] | 102 nM | 
COc1nc(C2=NOCC(c3ccc(OC(F)F)cc3)N2)ccc1-n1cnc(C)c1 (single isomer, unassigned; (-)) [Example 93A, (−)-5-(4-(difluoromethoxy)phenyl)-3-(6-methoxy-5-(4-methyl-1H-imidazol-1-yl)pyridin-2-yl)-5,6-dihydro-4H-1,2,4-oxadiazine] | > 3000 nM | 
COc1nc(C2=NOCC(c3cc4cc(F)ccc4o3)N2)ccc1-n1cnc(C)c1 (single isomer, unassigned; (+)) [Example 84B, (+)-5-(5-fluorobenzofuran-2-yl)-3-(6-methoxy-5-(4-methyl-1H-imidazol-1-yl)pyridin-2-yl)-5,6-dihydro-4H-1,2,4-oxadiazine] | 29.7 nM | 
COc1nc(C2=NOCC(c3cn(C)c4cc(Cl)cc(OC)c34)N2)ccc1-n1cnc(C)c1 (single isomer, unassigned; (-)) [Example 254A, (−)-5-(6-chloro-4-methoxy-1-methyl-1H-indol-3-yl)-3-(6-methoxy-5-(4-methyl-1H-imidazol-1-yl)pyridin-2-yl)-5,6-dihydro-4H-1,2,4-oxadiazine] | 148 nM | 
COc1nc(C2=NOCC(c3cn(C)c4ccc(C(F)(F)F)cc34)N2)ccc1-n1cnc(C)c1 (single isomer, unassigned; (-)) [Example 233A, (−)-3-(6-methoxy-5-(4-methyl-1H-imidazol-1-yl)pyridin-2-yl)-5-(1-methyl-5-(trifluoromethyl)-1H-indol-3-yl)-5,6-dihydro-4H-1,2,4-oxadiazine] | 94.5 nM | 
COc1cn(-c2ccc(C3=NOCC(c4cc5cccc(C)c5o4)N3)nc2OC)cn1 (single isomer, unassigned; (+)) [Example 33, (+)-3-(6-methoxy-5-(4-methoxy-1H-imidazol-1-yl)pyridin-2-yl)-5-(7-methylbenzofuran-2-yl)-5,6-dihydro-4H-1,2,4-oxadiazine] |  | 147 nM
COc1nc(C2=NOCC(c3cn(C)c4cc(F)c(F)cc34)N2)ccc1-n1cnc(C)c1 (single isomer, unassigned; (-)) [Example 223A, (−)-5-(5,6-difluoro-1-methyl-1H-indol-3-yl)-3-(6-methoxy-5-(4-methyl-1H-imidazol-1-yl)pyridin-2-yl)-5,6-dihydro-4H-1,2,4-oxadiazine] | 130 nM | 
COc1nc(C2=NOCC(c3cn(C)c4cc(F)c(C(F)(F)F)cc34)N2)ccc1-n1cnc(C)c1 (single isomer, unassigned; (-)) [Example 104A, (−)-5-(6-fluoro-1-methyl-5-(trifluoromethyl)-1H-indol-3-yl)-3-(6-methoxy-5-(4-methyl-1H-imidazol-1-yl)pyridin-2-yl)-5,6-dihydro-4H-1,2,4-oxadiazine] | 167 nM | 
COc1nc(C2=NOCC(c3cccc(OC(F)(F)F)c3)N2)ccc1-n1cnc(C)c1 (single isomer, unassigned; (-)) [Example 242A, (−)-3-(6-methoxy-5-(4-methyl-1H-imidazol-1-yl)pyridin-2-yl)-5-(3-(trifluoromethoxy)phenyl)-5,6-dihydro-4H-1,2,4-oxadiazine] | 709 nM | 

Other lines, results leading:

EC50 | EC50 (Homo sapiens) | SMILES
22.4 nM |  | COc1nc(C2=NOCC(c3coc4ccccc34)N2)ccc1-n1cnc(C)c1 (single isomer, unassigned) [Example 38B, 5-(benzofuran-3-yl)-3-(6-methoxy-5-(4-methyl-1H-imidazol-1-yl)pyridin-2-yl)-5,6-dihydro-4H-1,2,4-oxadiazine]
728 nM |  | CCC1CON=C(c2ccc(-n3cnc(C)c3)c(OC)n2)N1 (single isomer, unassigned) [Example 133B, 5-ethyl-3-(6-methoxy-5-(4-methyl-1H-imidazol-1-yl)pyridin-2-yl)-5,6-dihydro-4H-1,2,4-oxadiazine]
250 nM |  | COc1nc(C2=NOCC(c3ccc(C4CC4)c(Cl)c3)N2)ccc1-n1cnc(C)c1 (single isomer, unassigned; (-)) [Example 243A, (−)-5-(3-chloro-4-cyclopropylphenyl)-3-(6-methoxy-5-(4-methyl-1H-imidazol-1-yl)pyridin-2-yl)-5,6-dihydro-4H-1,2,4-oxadiazine]
14.1 nM |  | COc1nc(C2=NOCC(c3ccc(C)c(Cl)c3)N2)ccc1-n1cnc(C)c1 (single isomer, unassigned; (+)) [Example 218B, (+)-5-(3-chloro-4-methylphenyl)-3-(6-methoxy-5-(4-methyl-1H-imidazol-1-yl)pyridin-2-yl)-5,6-dihydro-4H-1,2,4-oxadiazine]
92.2 nM |  | COc1nc(C2=NOCC(c3ccc(F)c(F)c3)N2)ccc1-n1cnc(C)c1 (single isomer, unassigned; (+)) [Example 75B, (+)-5-(3,4-difluorophenyl)-3-(6-methoxy-5-(4-methyl-1H-imidazol-1-yl)pyridin-2-yl)-5,6-dihydro-4H-1,2,4-oxadiazine]
214 nM |  | COc1nc(C2=NOCC(c3cccc(C#N)c3)N2)ccc1-n1cnc(C)c1 (single isomer, unassigned; (+)) [Example 141B, (+)-3-(3-(6-methoxy-5-(4-methyl-1H-imidazol-1-yl)pyridin-2-yl)-5,6-dihydro-4H-1,2,4-oxadiazin-5-yl) benzonitrile]
> 3000 nM |  | COc1nc(C2=NOCC(c3ccc(C(F)(F)F)cc3)N2)ccc1-n1cnc(C)c1 (single isomer, unassigned; (-)) [Example 59A, (−)-3-(6-methoxy-5-(4-methyl-1H-imidazol-1-yl)pyridin-2-yl)-5-(4-(trifluoromethyl)phenyl)-5,6-dihydro-4H-1,2,4-oxadiazine]
418 nM |  | COc1nc(C2=NOCC(c3ccc(Cl)c(C(F)F)c3)N2)ccc1-n1cnc(C)c1 (single isomer, unassigned; (-)) [Example 270A, (−)-5-(4-chloro-3-(difluoromethyl)phenyl)-3-(6-methoxy-5-(4-methyl-1H-imidazol-1-yl)pyridin-2-yl)-5,6-dihydro-4H-1,2,4-oxadiazine]
958 nM |  | COc1nc(C2=NOCC(c3ccc(C)cc3)N2)ccc1-n1cnc(C)c1 (single isomer, unassigned; (-)) [Example 227A, (−)-3-(6-methoxy-5-(4-methyl-1H-imidazol-1-yl)pyridin-2-yl)-5-(p-tolyl)-5,6-dihydro-4H-1,2,4-oxadiazine]
> 3000 nM |  | COc1nc(C2=NOCC(C3CCS(=O)(=O)CC3)N2)ccc1-n1cnc(C)c1 (single isomer, unassigned; (-)) [Example 177B, (−)-4-(3-(6-methoxy-5-(4-methyl-1H-imidazol-1-yl)pyridin-2-yl)-5,6-dihydro-4H-1,2,4-oxadiazin-5-yl) tetrahydro-2H-thiopyran 1,1-dioxide]
775 nM |  | COc1nc(C2=NOCC(C3CCCCC3)N2)ccc1-n1cnc(C)c1 (single isomer, unassigned; (-)) [Example 61A, (−)-5-cyclohexyl-3-(6-methoxy-5-(4-methyl-1H-imidazol-1-yl)pyridin-2-yl)-5,6-dihydro-4H-1,2,4-oxadiazine]
